Reference: US20250129101A1, “Compound, Pharmaceutical Composition Comprising the Same and Method for Treating Cancer Using the Same” (NATIONAL TSING HUA UNIVERSITY, priority 2023, published 2025)

Tests used:
KIF2C = target: T1, KIF2C (Homo sapiens, UniProt Q99661); assay: In vitro validation: KIF2C kinesin activity, malachite green-based phosphate colorimetric assay; assay type: biochemical; conditions: concentration that inhibits 50% of KIF2C activity
T1 construct: KIF2C (216-598 a.a.); 6xHis (C); made in house; host or cells: E. coli BL21 (DE3), pET-28a
T1 sequence (Q99661 216-598): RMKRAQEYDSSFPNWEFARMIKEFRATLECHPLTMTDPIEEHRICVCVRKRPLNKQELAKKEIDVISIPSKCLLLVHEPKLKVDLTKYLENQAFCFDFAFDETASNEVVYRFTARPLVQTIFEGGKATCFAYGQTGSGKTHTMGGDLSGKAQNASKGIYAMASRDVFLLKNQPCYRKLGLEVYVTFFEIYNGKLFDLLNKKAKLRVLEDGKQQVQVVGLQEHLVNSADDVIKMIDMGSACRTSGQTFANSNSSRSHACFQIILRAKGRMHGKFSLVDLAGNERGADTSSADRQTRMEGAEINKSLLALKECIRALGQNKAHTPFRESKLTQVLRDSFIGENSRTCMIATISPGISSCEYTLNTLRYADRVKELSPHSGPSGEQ
Method: (§1) The in vitro validation was performed by measuring KIF2C kinesin activity using malachite green-based phosphate colorimetric assay (BioVision). […] The microtubules from porcine brain tubulin (Cytoskeleton) or purified from HEK293 cells in Free-style medium (293Fs) were dissolved in the BRB80 buffer (80 mM PIPES pH 6.8, 1 mM EGTA, 1 mM MgCl2, 1 mM GTP, 1 mM DTT, and 10% DMSO) at 37° C. for 2 hr. Phosphates released from kinesin-mediated ATP hydrolysis was measured by adding 30 μL of the phosphate colorimetric reagent (BioVision), incubated for 10 min, and then measured with absorbance at 650 nm. […] The cell validation was performed by measuring cytotoxicity in MDA-MB-231 cells. The cells were cultured in a 96-well plate at a confluence of 2000 cells/well with indicates compounds for specific days. When the time was up, the culture medium in the plate was aspirated and replaced with a prepared CellTiter-Glo reagent (Promega)/DMEM mixture (1:1 mix of CellTiter-Glo reagent and serum-supplemented DMEM). After incubation for 10 min, the luminescence was measured with an ELISA plate reader to determine the cell viability.
In vitro kinesin activity was measured using malachite green-based phosphate colorimetric assay (BioVision). […] The microtubules from porcine brain tubulin (Cytoskeleton) or purified from HEK293 cells in Free-style medium (293Fs) were dissolved in the BRB80 buffer (80 mM PIPES pH 6.8, 1 mM EGTA, 1 mM MgCl2, 1 mM GTP, 1 mM DTT, and 10% DMSO) at 37° C. for 2 hr. Phosphates released from kinesin-mediated ATP hydrolysis was measured by adding 30 μL of the phosphate colorimetric reagent (BioVision), incubated for 10 min, and then measured with absorbance at 650 nm.
Constructs of sN+M regions of KIF2C (216-598 a.a.), KIF2A (181-562 a.a.) and KIF2B (171-553 a.a.) with C-terminal 6×His tag were subcloned into pET-28a vector and expressed in BL21 (DE3) E. coli cells (Novartis) cultured in Luria-Bertani medium supplemented with 50 ug/mL kanamycin at 37° C. After induction with 0.8 mM IPTG for 18 hr at 20° C., the cells were pelleted by centrifugation at 6000 rpm for 30 min at 10° C. The collected pellets were resuspended in 30 mL of buffer A (20 mM Tris-HCl pH 7.5, 500 mM NaCl, 10 mM imidazole, 1% CHAPS, and 1 mM PMSF) and next subjected to a high-pressure homogenizer (EmulsiFlex-C3) for cell lysis. After removing the cell debris by centrifugation at 13000 rpm for 30 min at 10° C., the recombinant Kinesin-13 in the supernatant was purified using nickel affinity chromatography. Firstly, the supernatant was applied to the Ni-NTA column (GE Healthcare) pre-equilibrated with buffer A. Secondly, the column was washed with 10× column volumes of buffer A to remove the unwanted proteins. The washed column was then eluted with 10× column volumes of buffer containing increasing concentrations of imidazole (40, 100, 300, 1000 mM), and the majority of the recombinant Kinesin-13 protein was eventually obtained in a fraction of 300 mM imidazole. The fractions containing the recombinant Kinesin-13 were subsequently concentrated in the buffer B (20 mM Tris-HCl pH 7.5, 10 mM imidazole, 50 mM NaCl, 2 mM DTT) using an Amicon® Ultra filter (Millipore) and subjected to cation exchange column (Capto S, GE Healthcare) for further purification. The recombinant Kinesin-13 was then eluted in elution buffer (20 mM Tris-HCl pH 7.5 and 2 mM DTT) containing 400 mM of NaCl and stored at −80° C. for long-term storage.

MDA-MB-231 cells = assay: Cell validation: cytotoxicity in MDA-MB-231 cells (CellTiter-Glo); assay type: cell-based; conditions: cytotoxicity in MDA-MB-231 cells; for IC50: Homo sapiens
Method: as §1
The cancer cells were cultured in a 96-well plate at a confluence of 1000-2000 cells/well with indicated drugs for specific days. When the time was up, the culture medium in the plate was aspirated and replaced with a prepared CellTiter-Glo reagent/DMEM mixture (1:1 mix of CellTiter-Glo reagent and serum-supplemented DMEM). After incubation for 10 min, the luminescence (proportional to the number of living cells) was measured with an ELISA plate reader to determine the cell viability.

SMILES | EC50 (KIF2C) [µM] | Cell validation (IC50) (MDA-MB-231 cells) | IC50 (MDA-MB-231 cells) [µM]
CC1=C(C(=O)OC(C)C)C(c2ccc(-n3ccnc3)cc2)n2c(s/c(=C\c3ccc(OCC(=O)N4CCN(C)CC4)cc3)c2=O)=N1 (stereo not shown) [21S0 (46), isopropyl (Z)-5-(4-(1H-imidazol-1-yl)phenyl)-7-methyl-2-(4-(2-(4-methylpiperazin-1-yl)-2-oxoethoxy)benzylidene)-3-oxo-2,3-dihydro-5H-thiazolo[3,2-a]pyrimidine-6-carboxylate] | 50 to 100 | + + | 
CC1=C(C(=O)OC(C)C)C(c2ccc(Cl)cc2)n2c(s/c(=C\c3ccc(OCC(=O)N4CCN(C5CCCCC5)CC4)cc3)c2=O)=N1 (stereo not shown) [22S0 (17), propan-2-yl (2Z)-5-(4-chlorophenyl)-2-(4-(2-(4-cyclohexylpiperazin-1-yl)-2-oxoethoxy)benzylidene)-7-methyl-3-oxo-2,3-dihydro-5H-[1,3]thiazolo[3,2-a]pyrimidine-6-carboxylate] | > 100 |  | > 50
CC1=C(C(=O)OC(C)C)C(c2ccc(Cl)cc2)n2c(s/c(=C\c3ccc(OCC(=O)N4CCC(N(C)C)CC4)cc3)c2=O)=N1 (stereo not shown) [23S0 (18), propan-2-yl (2Z)-5-(4-chlorophenyl)-2-(4-(2-(4-(dimethylamino)piperidin-1-yl)-2-oxoethoxy)benzylidene)-7-methyl-3-oxo-2,3-dihydro-5H-[1,3]thiazolo[3,2-a]pyrimidine-6-carboxylate] | < 50 | + + + | 
CC1=C(C(=O)OC(C)C)C(c2ccc(Cl)cc2)n2c(s/c(=C\c3ccc(OCC(=O)N4CCC(N(C)C)CC4)cc3)c2=O)=N1.O=C(O)/C=C\C(=O)O (stereo not shown) [23S9 (134), isopropyl (Z)-5-(4-chlorophenyl)-2-(4-(2-(4-(dimethylamino)piperidin-1-yl)-2-oxoethoxy)benzylidene)-7-methyl-3-oxo-2,3-dihydro-5H-thiazolo[3,2-a]pyrimidine-6-carboxylate maleate] | < 50 | + + + | 
CC1=C(C(=O)OC(C)C)C(c2ccc(Cl)cc2)n2c(s/c(=C\c3ccc(OCC(=O)N4CCC(N5CCN(C)CC5)CC4)cc3)c2=O)=N1 (stereo not shown) [24S0 (19), isopropyl (Z)-5-(4-chlorophenyl)-7-methyl-2-(4-(2-(4-(4-methylpiperazin-1-yl)piperidin-1-yl)-2-oxoethoxy)benzylidene)-3-oxo-2,3-dihydro-5H-thiazolo[3,2-a]pyrimidine-6-carboxylate] | < 50 | + + + + | 
CC1=C(C(=O)OC(C)(C)C)C(c2ccc(Cl)cc2)n2c(s/c(=C\c3ccc(OCC(=O)N4CCN(C)CC4)cc3)c2=O)=N1 (stereo not shown) [25S0 (95)] | > 100 | + + | 
COC(=O)C1=C(C)N=c2s/c(=C\c3ccc(OCC(=O)N4CCN(C)CC4)cc3)c(=O)n2C1c1ccc(Cl)cc1 (stereo not shown) [26S0 (93)] | 50 to 100 | + + | 
CC1=C(C(=O)CC(C)C)C(c2ccc(Cl)cc2)n2c(s/c(=C\c3ccc(OCC(=O)N4CCN(C)CC4)cc3)c2=O)=N1 (stereo not shown) [27S0 (98), (Z)-5-(4-chlorophenyl)-7-methyl-6-(3-methylbutanoyl)-2-(4-(2-(4-methylpiperazin-1-yl)-2-oxoethoxy)benzylidene)-5H-thiazolo[3,2-a]pyrimidin-3(2H)-one] | 50 to 100 | + + | 
CCC1=C(C(=O)OC(C)C)C(c2ccc(Cl)cc2)n2c(s/c(=C\c3ccc(OCC(=O)N4CCN(C)CC4)cc3)c2=O)=N1 (stereo not shown) [28S0 (105), isopropyl (Z)-5-(4-chlorophenyl)-7-ethyl-2-(4-(2-(4-methylpiperazin-1-yl)-2-oxoethoxy)benzylidene)-3-oxo-2,3-dihydro-5H-thiazolo[3,2-a]pyrimidine-6-carboxylate] | > 100 |  | 20 to 50
CC1=C(C(=O)OCc2ccccc2)C(c2ccc(Cl)cc2)n2c(s/c(=C\c3ccc(OCC(=O)N4CCN(C)CC4)cc3)c2=O)=N1 (stereo not shown) [29S0 (97), benzyl (Z)-5-(4-chlorophenyl)-7-methyl-2-(4-(2-(4-methylpiperazin-1-yl)-2-oxoethoxy)benzylidene)-3-oxo-2,3-dihydro-5H-thiazolo[3,2-a]pyrimidine-6-carboxylate] | 50 to 100 | + + + | 
C=CCOC(=O)C1=C(C)N=c2s/c(=C\c3ccc(OCC(=O)N4CCN(C)CC4)cc3)c(=O)n2C1c1ccc(Cl)cc1 (stereo not shown) [30S0 (96), allyl (Z)-5-(4-chlorophenyl)-7-methyl-2-(4-(2-(4-methylpiperazin-1-yl)-2-oxoethoxy)benzylidene)-3-oxo-2,3-dihydro-5H-thiazolo[3,2-a]pyrimidine-6-carboxylate] | > 100 | + + | 
CC1=C(C(=O)OC(C)C)C(c2ccc(Cl)cc2)n2c(s/c(=C\c3ccc(OCC(=O)N4CCC(O)CC4)cc3)c2=O)=N1 (stereo not shown) [31S0 (20), isopropyl (Z)-5-(4-chlorophenyl)-2-(4-(2-(4-hydroxypiperidin-1-yl)-2-oxoethoxy)benzylidene)-7-methyl-3-oxo-2,3-dihydro-5H-thiazolo[3,2-a]pyrimidine-6-carboxylate] | > 100 |  | > 50
CC1=C(C(=O)OC(C)C)C(c2ccc(F)cc2)n2c(s/c(=C\c3ccc(OCC(=O)N4CCN(C)CC4)cc3)c2=O)=N1 (stereo not shown) [32S0 (36), isopropyl (Z)-5-(4-fluorophenyl)-7-methyl-2-(4-(2-(4-methylpiperazin-1-yl)-2-oxoethoxy)benzylidene)-3-oxo-2,3-dihydro-5H-thiazolo[3,2-a]pyrimidine-6-carboxylate] | > 100 | + + | 
CC1=C(C(=O)OC(C)C)C(c2ccc(Cl)cc2)n2c(s/c(=C\c3ccc(OCc4nn[nH]n4)cc3)c2=O)=N1 (stereo not shown) [33S0 (115), isopropyl (Z)-2-(4-((2H-tetrazol-5-yl)methoxy)benzylidene)-5-(4-chlorophenyl)-7-methyl-3-oxo-2,3-dihydro-5H-thiazolo[3,2-a]pyrimidine-6-carboxylate] | < 20 |  | > 50
CC1=C(C(=O)OC(C)C)C(c2ccc(Cl)cc2)n2c(s/c(=C\c3ccc4c(c3)OCO4)c2=O)=N1 (stereo not shown) [34S0 (24), isopropyl (Z)-2-(benzo[d][1,3]dioxol-5-ylmethylene)-5-(4-chlorophenyl)-7-methyl-3-oxo-2,3-dihydro-5H-thiazolo[3,2-a]pyrimidine-6-carboxylate] | > 100 |  | > 50
CCOC(=O)C1=C(C)N=c2s/c(=C\c3ccc(OCC(=O)OC)cc3)c(=O)n2C1c1ccc(Cl)cc1 (stereo not shown) [35S0 (110), ethyl (Z)-5-(4-chlorophenyl)-2-(4-(2-methoxy-2-oxoethoxy)benzylidene)-7-methyl-3-oxo-2,3-dihydro-5H-thiazolo[3,2-a]pyrimidine-6-carboxylate] | > 100 |  | 20 to 50
C#CCOc1ccc(/C=c2\sc3n(c2=O)C(c2ccc(Cl)cc2)C(C(=O)OC(C)C)=C(C)N=3)cc1 (stereo not shown) [36S0 (116), isopropyl (Z)-5-(4-chlorophenyl)-7-methyl-3-oxo-2-(4-(prop-2-yn-1-yloxy)benzylidene)-2,3-dihydro-5H-thiazolo[3,2-a]pyrimidine-6-carboxylate] | > 100 |  | > 50
